The values below come from patent US7230028B2, “Dimeric compounds and their use as anti-viral agents” (priority 2001, dated 2007).

The test system of series [1] is A/New Caledonia/20/99 BVLV008 (H1N1). Nature of the series: Plaque reduction assay (PRA) in MDCK cells. Type of series: cell-based. The following applies: for EC50 PRA A/New: plaque reduction, A/New Caledonia/20/99 (H1N1). On the technique in general: Plaque reduction counts the foci of infection that form in a cell layer.
The test system of a further series is B/Hong Kong/5/72 BVLV012. Nature of the series: Plaque reduction assay (PRA) in MDCK cells. The series is classed as cell-based, influenza B. The protocol:
(§1) Madin Darby Canine Kidney (MDCK) cells are seeded into six well tissue culture plates and grown to confluency via standard methods. Influenza viruses are diluted in a minimal volume of phosphate buffered saline supplemented with 0.2% bovine serum albumin to yield an estimated titre of 50–100 plaque forming units (pfu) per well. After adsorption to the MDCK cells for one hour at 37° C. in a 5% CO2 atmosphere the viral inocula is aspirated and replaced with viral growth media (minimal Eagle's media supplemented with BSA, trypsin and insulin/transferrin/selenium at optimal concentrations) containing sufficient agar or agarose (generally 1–2%) to cause the media to gel at room temperature and at 37° C. in a 5% CO2 atmosphere until plaques develop (generally 2–4 days). Plaques can be visualised with a suitable stain (e.g. 0.4% crystal violet in formal saline) before counting.

For the next series, the system named is Influenza A/Sydney/5/97. Nature of the series: Cytopathic effect (CPE) assay, inhibition of influenza virus replication in MDCK cells. The series is classed as cell-based. The following applies: up to 72 hours, MTT.
The test system of series [2] is A/Panama/2007/99 BVLV008 (H3N2). Description: Plaque reduction assay (PRA) in MDCK cells. Type of series: cell-based. The following applies: for EC50 PRA A/Pan: plaque reduction, A/Panama/2007/99 (H3N2).
Series [3] concerns A/Sydney/5/97 BVLV015 (H3N2). Nature of the series: Plaque reduction assay (PRA) in MDCK cells. Type of series: cell-based, influenza A H3N2. As to conditions: A/Sydney/5/97 (H3N2). The protocol: as §1
For series [4], the system named is A/Bayern/7/95 BVL006 (H1N1). Description: Plaque reduction assay (PRA) in MDCK cells. Type of series: cell-based, influenza A H1N1. As to conditions: A/Bayern/7/95 (H1N1). The protocol:
as §1

In the next series the test system is A/WSN/33 BVLV09 (H1N1). Nature of the series: Plaque reduction assay (PRA) in MDCK cells. The series is classed as cell-based, influenza A H1N1. The following applies: A/WSN/33 (H1N1). The protocol:
as §1

Series [5] has as its system B/Yamanashi/166/98 BVLV007. Nature of the series: Plaque reduction assay (PRA) in MDCK cells. Type of series: cell-based. The following applies: plaque reduction, B/Yamanashi/166/98.
Another series deals with B/Victoria/1/67. Description: Plaque reduction assay (PRA) in MDCK cells. The series is classed as cell-based, influenza B. The following applies: bis(trifluoroacetic acid salt).
Another series deals with Influenza B/Harbin/7/95. Description: Cytopathic effect (CPE) assay, inhibition of influenza virus replication in MDCK cells. The series is classed as cell-based. On the technique in general: Protection from cytopathic effect is a common read-out in antiviral testing.
The nature of series [6]: Rat lung retention assay (intra-tracheal dosing). The series is classed as in vivo. The following applies: for Mean (cmpd) / (cmpd): rat lung, 0.1 mg/kg intra-tracheal; for (cmpd): individual animal, bis(trifluoroacetic acid salt); for (cmpd) / Ratio Mean (lung) (cmpd)/PCT AU01/01128 compound 3: 0.1 mg/kg; for Ratio Mean (lung) (cmpd)/PCT AU01/01128 compound 3: rat, in vivo. The protocol:
Rodents are anaesthetised and dosed with compound of interest by the intra-tracheal route at a dose volume of 0.8 ml/kg. The rodent is then held in the vertical position until full recovery is achieved. […] Any analytical method suitable for detection of this type of compound may be used. The time at which levels of compound fall below the sensitivity of the analytical techniques identified will determine the residency time of the compound in lung tissue.
Please note that all experiments included a co-dosed internal standard, namely compound 3 of International Patent Publication No. WO 02/20514, to permit comparison. The data are expressed as a ratio with respect to this compound, the structure of which is shown below.

The next series deals with B/Harbin/7/95 BVLV008. Description: Plaque reduction assay (PRA) in MDCK cells. Type of series: cell-based. The following applies: Influenza B virus, read-out: EC50 PRA B/Harb. The protocol: as §1
The test system of series [7] is A/Victoria/3/75 BVLV017 (H3N2). Description: Plaque reduction assay (PRA) in MDCK cells. Type of series: cell-based. As to conditions: Influenza A virus, H3N2, MDCK, read-out: EC50 PRA A/Vic, plaque reduction, A/Victoria/3/75 (H3N2).

Values after ≈ are worked out from the molar mass of the structure shown. Values joined by “and” are separate entries in the source; they are usually repeats but may differ in a detail not shown here. Equal entries are not always repeated.

Regarding `CC(=O)N[C@H]1[C@H]([C@H](OC(=O)NCCCCCCCCCCCCCCNC(=O)O[C@@H]([C@@H]2OC(C(=O)O)=C[C@H](NC(=N)N)[C@H]2NC(C)=O)[C@H](O)CO)[C@H](O)CO)OC(C(=O)O)=C[C@@H]1NC(=N)N.O=C(O)C(F)(F)F.O=C(O)C(F)(F)F` [Example 5], the “EC50 PRA A/New” value in series [1] was below 0.0001 ng/mL. Besides, the “EC50 PRA B/HongK” value with B/Hong Kong/5/72 BVLV012 worked out at 0.37 ng/mL. In addition, in the series with Influenza A/Sydney/5/97, the “ID50 A/Sydney/5/97” value turned out to be 0.1 ng/mL. Besides, in [2], the “EC50 PRA A/Pan” value came to 0.032 ng/mL. Besides, the “EC50 PRA A/Syd” value in series [3] stood at 0.032 ng/mL. Besides, the “EC50 PRA A/Bay” value in [4] was below 0.0001 ng/mL. Moreover, the “EC50 PRA A/WSN” value with A/WSN/33 BVLV09 (H1N1) was below 0.0001 ng/mL. Besides, in series [5], the “EC50 PRA B/Yam” value was below 0.0001 ng/mL. Further, the “EC50 PRA B/Vic” value with B/Victoria/1/67 came to 0.1 ng/mL. In addition, the “ID50 B/Harbin/7/95” value in the series on Influenza B/Harbin/7/95 (molar) worked out at 0.26 M; in the series with Influenza B/Harbin/7/95 (up to 72 hours, MTT), 0.0003 µg/mL. Also, the “Mean (cmpd)” value in [6] (48 hrs) was determined as 4803 ng/g; in series [6] (168 hrs) it was 1798 ng/g. Moreover, the “(cmpd)” value in [6] (48 hrs) was 3044 ng/g and 6268 ng/g and 5097 ng/g; in series [6] (168 hrs), 2750 ng/g and 1255 ng/g and 1388 ng/g.

Regarding `CC(=O)N[C@H]1[C@H]([C@H](O)[C@H](O)CO)OC(C(=O)O)=C[C@@H]1NC(=N)N` [Compound A, 4-guanidino-2-deoxy-2,3-dehydro-N-acetylneuraminic acid], the EC50 stood at 0.27 ng/mL (≈ 0.812 nM) in series [1] (Influenza A virus, H1N1, MDCK, read-out: EC50 PRA A/New, plaque reduction, A/New Caledonia/20/99 (H1N1)); 21 ng/mL (≈ 63.2 nM) with B/Hong Kong/5/72 BVLV012 (Influenza B virus, MDCK, read-out: EC50 PRA B/HongK); 2.7 ng/mL (≈ 8.12 nM) in series [2] (Influenza A virus, H3N2, MDCK, read-out: EC50 PRA A/Pan, plaque reduction, A/Panama/2007/99 (H3N2)); 2.4 ng/mL (≈ 7.22 nM) in series [3] (Influenza A virus, MDCK, read-out: EC50 PRA A/Syd); 35 ng/mL (≈ 105 nM) in [4] (Influenza A virus, MDCK, read-out: EC50 PRA A/Bay); 56 ng/mL (≈ 169 nM) in the series with A/WSN/33 BVLV09 (H1N1) (Influenza A virus, MDCK). Further, the EC50 in the series on B/Harbin/7/95 BVLV008 worked out at 0.19 ng/mL (≈ 0.572 nM); in series [7], 5.5 ng/mL (≈ 16.6 nM). In series [1], the “EC50 PRA A/New” value was found to be 0.23 ng/mL (≈ 0.692 nM). Besides, the “EC50 PRA A/Pan” value in series [2] is 3 ng/mL (≈ 9.03 nM). For the same compound, the “EC50 PRA A/WSN” value with A/WSN/33 BVLV09 (H1N1) was above 100 ng/mL. The results for the “Ratio Mean (lung) (cmpd)/PCT AU01/01128 compound 3” value in [6] (48 h) and in series [6] (168 h) were 0.26 and 0.08, respectively.
